Values of other authors, collected in patent US20230346989A1, “FLUOROCARBON NANOEMULSIONS AND USES THEREOF IN IMAGING” (The Regents of the University of California, priority 2020, published 2023).

Assays:
[1] = test system: tumors; settings: depending on the model; cited from earlier work
[2] = in vivo; cited from earlier work

| SMILES | suppression of tumor growth [1] | organ-retention half-life [2] |
| --- | --- | --- |
| C[C@H](NC(=O)c1c(N)nn2cccnc12)c1cc2cccc(C#Cc3cnn(C)c3)c2c(=O)n1-c1ccccc1 [IPI549] | 50-100% |  |
| FC(F)(F)C(F)(F)C(F)(F)C(F)(F)C(F)(F)C(F)(F)C(F)(F)C(F)(F)Br [PFOB, perfluorooctyl bromide] |  | 5.1 days |
